Results on two compounds are retold here after patent US8658165B2, “Method of treating aberrant mucus production in respiratory disease” (Novartis AG, priority 2007, dated 2014).

Data set [1] deals with Human Bronchial Epithelial Cells (HBECs). Description: Effect of NRG1 isoforms on MUC5AC and MUC5B protein (goblet cell formation) in HBECs at air-liquid interface, immunohistochemistry. Type of data set: cell-based. As to conditions: HBECs at ALI, 7 days. The protocol: (§1) Human Bronchial epithelial cells (HBECs; Cambrex) were cultured in bronchial epithelial cell growth medium (BEGM; Cambrex) supplemented with the provided singlequots essentially as described in [Atherton et al, 2003]. For differentiation, cells were grown on 0.4 μm pore size, 12 mm TRANSWELL® inserts (Costar) at a cell density of 8.25×10^4 cells/insert in differentiation medium. Differentiation medium contained 50% BEGM and 50% Dulbeccos' modified Eagle's medium (DMEM) and was supplemented with 52 μg/ml bovine pituitary extract, 5 μg/ml insulin, 0.5 μg/ml hydrocortisone, 10 μg/ml transferrin, 0.5 μg/ml epinephrine 0.5 ng/ml human EGF, 50 μg/ml gentamicin and 50 nM retinoic acid. Cells were maintained submerged for 7 days then grown at air-liquid interface (ALI) for 7-14 days and medium was replenished every 2-3 days. Cells were treated with NRG1α or NRG1β1 (R&D SYSTEMS®) during the ALI culture period, added to the basolateral chamber of the TRANSWELL® inserts. At all stages cells were maintained at 37° C. in the presence of 5% CO2 in an air incubator.
After 7 days (unless otherwise stated) of differentiation at ALI, the apical surface of the HBECs was washed gently with PBS and fixed with neutral buffered formalin and wax embedded. Inserts were sectioned at 3 μm thickness and stained with either an anti-MUC5AC antibody (45M1; LABVISION®) or anti-MUC5B monoclonal antibodies using a DABMAP protocol on a VENTANA® XT immunostainer and counterstained with 1% alcian blue in 3% acetic acid, pH 2.5. The area of staining was assessed using a ZEISS® Axioplan 2 microscope (×10 magnification) with an Imaging Associated KS400 image analyzer (Imaging Associates). Fourteen fields were scored for each sample. Data are presented as goblet cell density, which was defined as the ratio of stained area (μm^2) to length (μm) of epithelium scored. Custom made anti-MUC5B monoclonal antibodies were obtained from the Hybridoma Core Laboratory, University of Florida and were raised against the peptide SWYNGHRPEPGLG (SEQ ID NO:11).

For a further data set, the target named is ErbB3 (Homo sapiens, UniProt P21860). The conditions noted are these: higher affinity than NRG1a; cited from earlier work.
Sequence of ErbB3 (P21860 20-1342): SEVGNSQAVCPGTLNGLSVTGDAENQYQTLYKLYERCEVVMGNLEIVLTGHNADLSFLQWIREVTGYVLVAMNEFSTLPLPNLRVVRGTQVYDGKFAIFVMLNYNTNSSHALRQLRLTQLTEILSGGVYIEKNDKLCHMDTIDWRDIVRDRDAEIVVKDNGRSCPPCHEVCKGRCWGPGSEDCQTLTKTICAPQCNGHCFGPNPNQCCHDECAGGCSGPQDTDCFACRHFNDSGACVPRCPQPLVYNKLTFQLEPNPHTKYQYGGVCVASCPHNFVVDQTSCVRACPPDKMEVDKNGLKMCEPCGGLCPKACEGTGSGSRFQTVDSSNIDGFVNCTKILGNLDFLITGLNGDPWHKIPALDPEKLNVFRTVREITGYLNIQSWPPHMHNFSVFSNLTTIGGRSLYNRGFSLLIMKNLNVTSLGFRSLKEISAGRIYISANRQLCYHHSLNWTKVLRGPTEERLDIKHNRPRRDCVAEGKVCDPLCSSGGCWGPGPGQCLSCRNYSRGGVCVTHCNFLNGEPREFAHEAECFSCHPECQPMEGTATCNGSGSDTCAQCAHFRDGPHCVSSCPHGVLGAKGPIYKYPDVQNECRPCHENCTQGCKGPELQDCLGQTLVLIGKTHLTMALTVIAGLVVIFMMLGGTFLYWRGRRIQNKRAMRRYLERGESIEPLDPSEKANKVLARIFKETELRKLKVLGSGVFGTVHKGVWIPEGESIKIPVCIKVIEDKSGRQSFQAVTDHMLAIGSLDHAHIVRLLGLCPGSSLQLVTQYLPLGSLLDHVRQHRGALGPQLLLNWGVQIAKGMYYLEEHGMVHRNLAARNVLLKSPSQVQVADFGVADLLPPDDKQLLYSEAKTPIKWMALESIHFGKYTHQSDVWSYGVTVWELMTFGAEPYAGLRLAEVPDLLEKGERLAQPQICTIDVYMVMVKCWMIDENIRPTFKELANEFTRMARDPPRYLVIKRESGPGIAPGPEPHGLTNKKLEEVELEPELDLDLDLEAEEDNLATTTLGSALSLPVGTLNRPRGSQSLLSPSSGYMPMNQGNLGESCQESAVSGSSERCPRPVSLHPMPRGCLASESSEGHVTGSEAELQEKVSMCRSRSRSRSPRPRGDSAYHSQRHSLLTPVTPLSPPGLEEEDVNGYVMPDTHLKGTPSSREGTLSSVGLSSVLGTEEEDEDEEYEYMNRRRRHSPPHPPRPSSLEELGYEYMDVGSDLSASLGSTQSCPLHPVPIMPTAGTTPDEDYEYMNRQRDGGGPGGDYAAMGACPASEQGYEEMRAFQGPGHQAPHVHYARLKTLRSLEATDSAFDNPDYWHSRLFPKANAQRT
The next data set concerns the target ErbB2/ErbB3 heterodimer (Homo sapiens, UniProt P21860). The conditions noted are these: greater affinity than for ErbB3 homodimers; cited from earlier work.
Data set [2] relates to Human Bronchial Epithelial Cells (HBECs). Description: Inhibition of NRG1β1-induced goblet cell formation (MUC5AC and MUC5B protein by histology) in HBECs. As to conditions: inhibitor at 10 μM, NRG1β1 50 nM, 7 days at ALI. It counts as cell-based. As to the method:
as §1, with “Cells were treated with NRG1α or NRG1β1 (R&D SYSTEMS®) during the ALI culture period, added to the basolateral chamber of the TRANSWELL® inserts. At all stages cells were maintained at 37° C. in the presence of 5% CO2 in an air incubator.” left out
After 7 days (unless otherwise stated) of differentiation at ALI, the apical surface of the HBECs was washed gently with PBS and fixed with neutral buffered formalin and wax embedded. […] The area of staining was assessed using a ZEISS® Axioplan 2 microscope (×10 magnification) with an Imaging Associated KS400 image analyzer (Imaging Associates). Fourteen fields were scored for each sample. Data are presented as goblet cell density, which was defined as the ratio of stained area (μm^2) to length (μm) of epithelium scored. […]

Consider “NRG1β1: Neuregulin-1 isoform β1 protein (R&D SYSTEMS) added to HBEC cultures”, for which the “increase in MUC5AC protein over vehicle levels” value in data set [1] (50 nM, histology) amounted to 3 fold. For the same compound, the “increase in MUC5B protein” value in data set [1] (50 nM, immunohistochemistry) was determined as 9.8 fold. In addition, the “effect on MUC5AC protein” value in data set [1] (increasing concentrations, histology) is recorded as “dose-dependent increase”. The “affinity for ErbB3 relative to NRG1a” value in the data set with ErbB3 is recorded as 100 fold. Also, the “affinity for the ErbB2/ErbB3 heterodimer relative to ErbB3 homodimers” value with ErbB2/ErbB3 heterodimer is reported as 100 fold.

As to `CCN1CCN(Cc2ccc(-c3cc4c(N[C@H](C)c5ccccc5)ncnc4[nH]3)cc2)CC1` [pan-ErbB receptor inhibitor], in data set [2], the “effect on NRG1β1-induced increase in MUC5AC protein” value is listed as “significantly inhibited” and the “effect on NRG1β1-induced increase in MUC5B protein” value is “significantly inhibited”.
